Experimental data reported in patent publication US20210171948A1, “COMPOSITIONS AND METHODS FOR TARGETING GLYPICAN-2 IN THE TREATMENT OF CANCER” (Shepherd Therapeutics, Inc., priority 2019, published 2021).
Strand notation (5' to 3'): a small letter for the sugar, then the base; units joined by * are phosphorothioate-linked, units joined directly phosphodiester-linked; [ ] holds rarer units or linkages, { } end groups; capitals alone tell only the bases. d = 2'-deoxy (DNA); r = 2'-OH (RNA)

Key:
CHLA-90 cells = assay: Etoposide IC50 in siRNA-transfected cells, Cell Titer Glo 2.0 viability (Example 9); assay type: cell-based; details: for Data Summary: effect of knockdown on sensitivity to etoposide: CHLA-90; for IC50: CHLA-90 cells transfected with the labelled siRNA, etoposide added 24 hours post transfection, 72 hour incubation
Method: (§1) GPC2 mRNA expression was reduced and changes in cell viability were assessed in multiple neuroblastoma cell lines. Cells were transfected with either a control siRNA or with GPC2 siRNA sequences 3, 5 or 7 from Table 7 using the RNAiMAX Lipofectamine kit (Invitrogen, Carlsbad, Calif.) as previously described in 96 wells for viability assays. Etoposide was added at increasing concentrations (0-15 uM) to transfected cells at 24 hours post transfection. Following a 72 hour incubation period, viability measurement were made using Cell Titer Glo 2.0.

SH-SY5Y cells = assay: as above; assay type: cell-based; details: for Data Summary: effect of knockdown on sensitivity to etoposide: SH-SY5Y; for IC50: SH-SY5Y cells transfected with the labelled siRNA, etoposide added 24 hours post transfection, 72 hour incubation
Method: as §1

SK-N-BE2 cells = assay: as above; assay type: cell-based; details: for Data Summary: effect of knockdown on sensitivity to etoposide: SK-N-BE2; for IC50: SK-N-BE2 cells transfected with the labelled siRNA, etoposide added 24 hours post transfection, 72 hour incubation
Method: as §1

CHP212 cells [1] = assay: as above; assay type: cell-based; details: for IC50: CHP212 cells transfected with the labelled siRNA, etoposide added 24 hours post transfection, 72 hour incubation
Method: as §1

TOV112D cells = assay: Cisplatin IC50 in siRNA-transfected cells, Cell Titer Glo 2.0 viability (Example 5); assay type: cell-based
Method: (§2) GPC2 mRNA was reduced using the indicated siRNAs and changes in cell viability were assessed in multiple cancer cell lines, in combination with Cisplatin treatment. Cells were transfected with either a scrambled control siRNA or with GPC2 siRNA sequences 3 or 5 from Table 7 using the RNAiMAX Lipofectamine kit (Invitrogen, Carlsbad, Calif.), as previously described, in either in 96 well (for viability assays) or 6 well format (for total RNA). Cisplatin was added at increasing concentrations (0 to 30 uM) to transfected cells at 24 hours post transfection. Following a 72 hour incubation period, cell viability was measured using Cell Titer Glo 2.0. Total RNA samples were also isolated to measure knockdown efficiency.

CHP212 cells [2] = assay: as above; assay type: cell-based
Method: as §2

GPC2 mRNA [3] = assay: GPC2 mRNA knockdown in multiple cancer cell lines, 96 hour (Example 3); assay type: cell-based, human; details: 96 hour incubation
Method: (§3) siRNAs 1-5 from Table 7 were diluted to 40 nM in OptiMEM media and mixed in a 1:3 ratio (weight by volume) with RNAiMAX. This was incubated for 15 minutes at room temperature and dispensed onto cells plated in a 6 well tissue culture plate. Total RNA samples were collected at either 72 hours post transfection to compare knockdown efficiency (FIG. 2A), or at 24, 48, 72 or 96 hours post transfection to determine the extent of GPC2 mRNA knockdown over time (FIG. 2B). Expression levels of mRNA of GPC2 were measured in these samples using primers specific for GPC2 obtained commercially from Thermofisher (Carlsbad, Calif.) and standard qPCR technique.
GPC2 mRNA knockdown and changes in cell viability were assessed in multiple cancer cell lines. Cells were transfected with either a scrambled control siRNA or with GPC2 siRNA sequence 3 or sequence 5 from Table 7 using the RNAiMAX Lipofectamine kit (Invitrogen, Carlsbad, Calif.) as previously described in Example 2, either in 96 well format (for viability assays) or 6 well format (for knockdown assessment). Following a 96 hour incubation period, cells were washed and the viability measurement was assessed using Cell Titer Glo 2.0. Total RNA was isolated from the 6 well plate samples to determine knockdown efficiency.

CHLA-172 cells = assay: Carboplatin IC50 in siRNA-transfected cells, Cell Titer Glo 2.0 viability (Example 6); assay type: cell-based
Method: (§4) GPC2 mRNA expression was reduced using the indicated siRNAs and changes in cell viability were assessed in multiple neuroblastoma cell lines. Cells were transfected with either a control siRNA or with GPC2 siRNA sequences 3, 5 or 7 from Table 7 using the RNAiMAX Lipofectamine kit (Invitrogen, Carlsbad, Calif.) as previously described in 96 wells for viability assays. Carboplatin was added at increasing concentrations (0 to 150 uM) to transfected cells at 24 hours post transfection. Following a 72 hour incubation period, viability measurements were made using Cell Titer Glo 2.0.

CHLA-136 cells = assay: as above; assay type: cell-based
Method: as §4

KELLY cells = assay: as above; assay type: cell-based
Method: as §4

SKNAS cells = assay: as above; assay type: cell-based
Method: as §4

GPC2 mRNA [4] = assay: GPC2 mRNA knockdown in cell lines of the cisplatin experiment (Example 5); assay type: cell-based, human
Method: as §2

[5] = tested on: CHP212, SKNAS and SHSY5Y neuroblastoma cell lines; assay: Cell viability after siRNA transfection, 96 hour (Example 4, FIG. 3B); assay type: cell-based; details: 96 hour incubation (FIG. 3B)
Method: GPC2 mRNA knockdown was assessed in multiple neuroblastoma cell lines. Cells were transfected with either a scrambled control siRNA, with GPC2 siRNA sequences 3 or 5 from Table 7, or with siRNA sequences generated by Dharmacon (sequences 12-15 from Table 7) using the RNAiMAX Lipofectamine kit (Invitrogen, Carlsbad, Calif.) as previously described. Following a 96 hour incubation period, total RNA samples were collected to compare knockdown efficiency and viability was measured in parallel plated cells.

GPC2 mRNA [6] = assay: GPC2 mRNA knockdown by qPCR in TC-32 Ewing's sarcoma cells transfected with siRNA (Example 2); assay type: cell-based, human; details: TC-32 cells; 72 hours post transfection
Method: as §3

[7] = GIST-T1 (Gastrointestinal Stromal)

GPC2 siRNA 7: siRNA duplex: sense CUCCUUUCUGGUUCACACA[dT][dT] (SEQ ID NO: 215), anti-sense UGUGUGAACCAGAAAGGAG[dT][dT] (SEQ ID NO: 216) (sense rCrUrCrCrUrUrUrCrUrGrGrUrUrCrArCrArCrAdTdT; antisense rUrGrUrGrUrGrArArCrCrArGrArArArGrGrArGdTdT; listed as Homo sapiens)
Data Summary: effect of knockdown on sensitivity to etoposide (CHLA-90 cells): increases sensitivity to etoposide | IC50 (CHLA-90 cells): 130 nM | Data Summary: effect of knockdown on sensitivity to etoposide (SH-SY5Y cells): 7 increases sensitivity to etoposide | IC50 (SH-SY5Y cells): 30 nM | Data Summary: effect of knockdown on sensitivity to etoposide (SK-N-BE2 cells): 7 increases sensitivity to etoposide | IC50 (SK-N-BE2 cells): 200 nM | IC50 (CHP212 cells [1]): 20 nM

GPC2 siRNA 5: siRNA duplex: sense CUCAGUAGCCCAGCACUCU[dT][dT] (SEQ ID NO: 211), anti-sense AGAGUGCUGGGCUACUGAG[dT][dT] (SEQ ID NO: 212) (sense CUCAGUAGCCCAGCACUCUTT; antisense AGAGUGCUGGGCUACUGAGTT; sugars from the 5' end r19 d2, backbone not given here; listed as Homo sapiens)
Data Summary: effect of knockdown on sensitivity to etoposide (CHLA-90 cells): increases sensitivity to etoposide | IC50 (CHLA-90 cells): 250 nM | Data Summary: effect of knockdown on sensitivity to etoposide (SH-SY5Y cells): 7 increases sensitivity to etoposide | IC50 (SH-SY5Y cells): 50 nM | Data Summary: effect of knockdown on sensitivity to etoposide (SK-N-BE2 cells): 7 increases sensitivity to etoposide | IC50 (SK-N-BE2 cells): 20 nM | Data Summary: effect of knockdown on sensitivity to etoposide (CHP212 cells [1]; CHP212): increases sensitivity to etoposide | IC50 (CHP212 cells [1]): 20 nM | Data Summary: effect of knockdown on sensitivity to cisplatin (TOV112D cells; TOV112D): does not increase | IC50 (TOV112D cells; TOV112D cells transfected with the labelled siRNA, cisplatin added 24 hours post transfection, 72 hour incubation): 7000 nM | Data Summary: effect of knockdown on sensitivity to cisplatin (CHP212 cells [2]; CHP212): increases sensitivity to | IC50 (CHP212 cells [2]; CHP212 cells transfected with the labelled siRNA, cisplatin added 24 hours post transfection, 72 hour incubation): 6000 nM | % GPC2 knockdown (GPC2 mRNA [3]; CHP212 (Neuroblastoma)): 65% | % GPC2 knockdown (GPC2 mRNA [3]; COV362 (Ovarian Carcinoma)): 79% | % GPC2 knockdown (GPC2 mRNA [3]; [7]): 76% | % GPC2 knockdown (GPC2 mRNA [3]; IMR32 (Neuroblastoma)): 25% | % GPC2 knockdown (GPC2 mRNA [3]; MCF7 (Breast)): 82% | % GPC2 knockdown (GPC2 mRNA [3]; RH30 (Rhabdomyosarcoma)): 83% | % GPC2 knockdown (GPC2 mRNA [3]; RH41 (Rhabdomyosarcoma)): 60% | % GPC2 knockdown (GPC2 mRNA [3]; SKNAS (Neuroblastoma)): 44% | % GPC2 knockdown (GPC2 mRNA [3]; SNU16 (Gastric)): 25% | % GPC2 knockdown (GPC2 mRNA [3]; TC32 (Ewing's Sarcoma)): 57% | % GPC2 knockdown (GPC2 mRNA [3]; TC71 (Ewing's Sarcoma)): 33% | % GPC2 knockdown (GPC2 mRNA [3]; TOV112D (Ovarian Carcinoma)): 78% | GPC2 knockdown across the cell lines of Table 8 (GPC2 mRNA [3]; multiple cancer cell lines): GPC2 knockdown was observed in each cell line | Data Summary: effect of knockdown on sensitivity to carboplatin (CHLA-172 cells; CHLA-172): increases sensitivity to | IC50 (CHLA-172 cells; CHLA-172 cells transfected with the labelled siRNA, carboplatin added 24 hours post transfection, 72 hour incubation): 100000 nM | Data Summary: effect of knockdown on sensitivity to carboplatin (CHLA-136 cells; CHLA-136): not increase sensitivity | IC50 (CHLA-136 cells; CHLA-136 cells transfected with the labelled siRNA, carboplatin added 24 hours post transfection, 72 hour incubation): 36000 nM | Data Summary: effect of knockdown on sensitivity to carboplatin (KELLY cells; KELLY): KD with sequence 5 increases | IC50 (KELLY cells; KELLY cells transfected with the labelled siRNA, carboplatin added 24 hours post transfection, 72 hour incubation): 9000 nM | Data Summary: effect of knockdown on sensitivity to carboplatin (SKNAS cells; SKNAS): increases sensitivity to | IC50 (SKNAS cells; SKNAS cells transfected with the labelled siRNA, carboplatin added 24 hours post transfection, 72 hour incubation): 15300 nM | % GPC2 knockdown (GPC2 mRNA [4]; CHLA-90 (Neuroblastoma)): 55% | % GPC2 knockdown (GPC2 mRNA [4]; CHLA-136 (Neuroblastoma)): 35% | % GPC2 knockdown (GPC2 mRNA [4]; CHLA-172 (Neuroblastoma)): 8% | % GPC2 knockdown (GPC2 mRNA [4]; CHP212 (Neuroblastoma)): 70% | % GPC2 knockdown (GPC2 mRNA [4]; COV362 (Ovarian cancer)): 89% | % GPC2 knockdown (GPC2 mRNA [4]; [7]): 75% | % GPC2 knockdown (GPC2 mRNA [4]; KELLY (Neuroblastoma)): 75% | % GPC2 knockdown (GPC2 mRNA [4]; RH30 (Rhabdomyosarcoma)): 86% | % GPC2 knockdown (GPC2 mRNA [4]; RH41 (Rhabdomyosarcoma)): 70% | % GPC2 knockdown (GPC2 mRNA [4]; SH-SY5Y (Neuroblastoma)): 75% | % GPC2 knockdown (GPC2 mRNA [4]; SK-N-BE2 (Neuroblastoma)): 68% | % GPC2 knockdown (GPC2 mRNA [4]; SKNAS (Neuroblastoma)): 70% | % GPC2 knockdown (GPC2 mRNA [4]; SNU16 (Gastric carcinoma)): 52% | % GPC2 knockdown (GPC2 mRNA [4]; TC32 (Ewing's sarcoma)): 75% | % GPC2 knockdown (GPC2 mRNA [4]; TC71 (Ewing's sarcoma)): 60% | % GPC2 knockdown (GPC2 mRNA [4]; TOV112D (Ovarian cancer)): 86% | Viability decrease among sequences 3, 5, 12-15 [5]: greater viability decrease | Degree of GPC2 knockdown among siRNA sequences 1-5 (GPC2 mRNA [6]): greatest degree of GPC2 knockdown
